In BindingDB's records for patent WO2022070068 (JANSSEN BIOTECH, INC., 2022) one finds IC50 data, which are given here for 25 molecules.

“And” between values parts separate entries of the source, which are not always exact repeats. Equal values may be shown once.

What is called IC50 is the concentration at which inhibition is half-maximal. Low values mean inhibition by little substance, high ones a need for much substance.

The target in the assay is Dihydroorotate dehydrogenase (quinone), mitochondrial (Homo sapiens, UniProt Q02127). As to the kind of experiment: DHODH enzymatic assay. Here is the method: To detect DHODH enzyme activities, dichloroindophenol (DCIP) is added as the final electron acceptor in the assay. DCIP can accept electrons from the reduced coenzyme Q generated in the assay, or from dihydroorotate (DHO) via FMN by binding presumably to the ubiquinone pocket. DCIP solutions are blue, with an intense absorbance around 600 nm, but becomes colorless upon reduction (J. Biol. Chem. (1986) 261, 11386). The assay buffer contained […], pH 7.5, 150 mM NaCl, 0.5 mM EDTA, and 0.1% Triton X-100 in MilliQ water. Substrate consisting of 20 mM DHO, 5mM CoQ6, and 1mM DCIP in assay buffer, initiates the reaction. The assay is run in end-point mode by quenching the reaction with the potent DHODH inhibitor brequinar. Absorbance measurements were obtained using the BMG Phera Star plate-reading spectrophotomer. Purified human DHODH was purchased from Proteros (cat. No. PR-0044). Chemicals were purchased from Sigma-Aldrich, Teknova, and Avanti Polar Lipids. Liquid handling was performed using Labcyte Echo and Formulatrix Tempest.
Dihydroorotate dehydrogenase (quinone), mitochondrial, sequence (Q02127 whole entry): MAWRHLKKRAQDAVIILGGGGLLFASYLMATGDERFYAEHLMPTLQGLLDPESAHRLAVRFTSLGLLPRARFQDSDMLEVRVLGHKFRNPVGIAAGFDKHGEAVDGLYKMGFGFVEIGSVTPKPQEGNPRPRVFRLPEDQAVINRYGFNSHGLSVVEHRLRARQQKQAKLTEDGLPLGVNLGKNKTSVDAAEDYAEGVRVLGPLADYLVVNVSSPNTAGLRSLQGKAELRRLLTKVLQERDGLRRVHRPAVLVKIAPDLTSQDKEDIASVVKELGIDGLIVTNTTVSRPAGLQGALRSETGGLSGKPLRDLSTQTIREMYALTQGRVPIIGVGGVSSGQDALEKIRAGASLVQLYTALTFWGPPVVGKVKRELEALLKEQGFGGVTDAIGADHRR
For `Cc1ccccc1-n1nc(C(C)C)c2cc(-c3cn(C)c([C@@H](C)O)n3)c(F)cc2c1=O` [WO2022070068, Example 15], the IC50 came to 2.6 nM.

`Cc1ccccc1-n1cc(C(C)C)c2cc(-c3nc(CO)n(C)n3)c(F)cc2c1=O` [WO2022070068, Example 9] had an IC50 of 2.6 nM.

Consider `Cc1ccccc1-n1cc(C(C)C)c2cc(-c3cn(C)c([C@@H](C)O)n3)c(F)cc2c1=O` [WO2022070068, Example 11], for which half-maximal inhibition (IC50) was put at 0.51 nM.

As to `Cc1ccccc1-n1cc(C(C)C)c2cc(-c3nc([C@@H](C)O)n(C)n3)c(F)cc2c1=O` [WO2022070068, Example 12], the IC50 is 1.6 nM and 2 nM.

Turning to `CCn1nc(-c2cc3c(C(C)C)cn(-c4ccccc4C)c(=O)c3cc2F)nc1C(C)(C)O` [WO2022070068, Example 20], 27 nM corresponded to half-maximal inhibition (IC50).

`Cc1ccccc1-n1nc(C(C)C)c2cc(-c3cn(C)c(C(C)(C)O)n3)c(F)cc2c1=O` [WO2022070068, Example 14]: half-maximal inhibition (IC50) was put at 0.45 nM.

In turn, `Cc1ccnc(Cl)c1-n1cc(C(C)C)c2cc(-c3nc(C(C)(C)O)n(C)n3)c(F)cc2c1=O` [WO2022070068, Example 19] showed an IC50 of 2.5 nM.

The molecule `Cc1n[nH]c(Cl)c1-n1cc(C(C)C)c2cc(-c3cn(C)c(C(C)(C)O)n3)c(F)cc2c1=O` [WO2022070068, Example 16] showed an IC50 of 0.51 nM.

`CCn1nc(-c2cc3c(C(C)C)cn(-c4ccccc4C)c(=O)c3cc2F)nc1C(C)=O` [WO2022070068, Example 24] yielded an IC50 of 6.2 nM.

For `Cc1ccccc1-n1cc(C(C)C)c2cc(-c3nc([C@H](C)O)n(C)n3)c(F)cc2c1=O` [WO2022070068, Example 13], the IC50 is 0.48 nM and 1.1 nM.

On to `Cc1ccccc1-n1cc(C(C)C)c2cc(-c3cn(C)c(CO)n3)c(F)cc2c1=O` [WO2022070068, Example 8], for which the IC50 was determined as 1.2 nM.

Molecule `Cc1ccccc1-n1cc(C(C)C)c2cc(-c3cn(C)c([C@H](C)O)n3)c(F)cc2c1=O` [WO2022070068, Example 10] displayed an IC50 of 0.73 nM.

The molecule `COc1cc(-n2cc(C(C)C)c3cc(-c4nc(C(C)(C)O)n(C)n4)c(F)cc3c2=O)c(C)cn1` [WO2022070068, Example 26] came in with an IC50 of 1.2 nM.

Molecule `CC(=O)c1nc(-c2cc3c(C(C)C)cn(-c4ccccc4C)c(=O)c3cc2F)nn1C` [WO2022070068, Example 6] had an IC50 of 1.7 nM.

`Cc1ccccc1-n1cc(C(C)C)c2cc(-c3ccc(C)c(N)n3)c(F)cc2c1=O` [WO2022070068, Example 2] returned an IC50 of 0.18 nM.

In turn, `Cc1ccccc1-n1cc(C(C)C)c2cc(-c3cnc(C4CC4)cn3)c(F)cc2c1=O` [WO2022070068, Example 1] displayed an IC50 of 2.6 nM.

With `Cc1cnc(-c2cc3c(C(C)C)cn(-c4ccccc4C)c(=O)c3cc2F)cc1N` [WO2022070068, Example 3], inhibition was half-maximal at 3.6 nM (IC50).

Regarding `Cc1ccccc1-n1cc(C(C)C)c2cc(-c3nc(C(C)O)n(C)n3)c(F)cc2c1=O` (racemic) [WO2022070068, Example 5], the IC50 came out at 1.1 nM.

As to `CCn1nc(-c2cc3c(C(C)C)cn(-c4ccccc4C)c(=O)c3cc2F)nc1C(C)O` (stereo not given) [WO2022070068, Example 28], the IC50 was 19 nM.

`Cc1n[nH]c(Cl)c1-n1cc(C(C)C)c2cc(-c3nc(C(C)(C)O)n(C)n3)c(F)cc2c1=O` [WO2022070068, Example 17] displayed an IC50 of 0.71 nM.

As to `Cc1ccc(Cl)c(-n2cc(C(C)C)c3cc(-c4cn(C)c(C(C)(C)O)n4)c(F)cc3c2=O)n1` [WO2022070068, Example 27], the IC50 was determined as 1.4 nM.

In turn, `COc1cc(-n2cc(C(C)C)c3cc(-c4cn(C)c(C(C)(C)O)n4)c(F)cc3c2=O)c(C)cn1` [WO2022070068, Example 25] had a 50% inhibitory concentration (IC50) of 1.2 nM.

Take `Cc1ccccc1-n1cc(C(C)C)c2cc(-c3nc(C(C)(C)O)n(C)n3)c(F)cc2c1=O` [WO2022070068, Example 29]: the IC50 is 0.57 nM and 0.64 nM.

With `Cc1ccccc1-n1cc(C(C)C)c2cc(-c3cn(C)c(C(C)(C)O)n3)c(F)cc2c1=O` [WO2022070068, Example 23], the IC50 is 0.38 nM and 0.54 nM.

`Cc1ccnc(Cl)c1-n1cc(C(C)C)c2cc(-c3cn(C)c(C(C)(C)O)n3)c(F)cc2c1=O` [WO2022070068, Example 18] gave an IC50 of 2 nM.
